Key:
[1] = tested on: bone marrow macrophages; assay: RANKL driven differentiation of osteoclasts from bone marrow macrophages; assay type: cell-based
[2] = tested on: human T cells; assay: Concanavalin A-induced model for activation of human T cells (IFN-γ); assay type: cell-based; conditions: at isoform selective concentrations
[3] = tested on: Myeloid Derived Suppressor Cell; assay: Myeloid Derived Suppressor Cell differentiation assay; assay type: cell-based; conditions: MDSC differentiation assay
[4] = tested on: Lewis Lung Carcinoma; assay: Lewis Lung Carcinoma model; assay type: in vivo, mice
[5] = tested on: tumor; assay: Tumor growth, Compound BB alone and co-administered with 5-FU (FIG. 35); assay type: in vivo
[6] = tested on: LLC tumor; assay: LLC tumor brei model; assay type: in vivo
[7] = Oral exposure in the rat; assay type: in vivo
[8] = tested on: CXCL12-induced pAKT in T-cells; assay: CXCL12-induced pAKT assay in T-cells; assay type: cell-based, human; conditions: FIG. 9
Text: There was a tight correlation between the EC50s observed in the CXCL12-induced pAKT assay and the T-cell migration assay.

[9] = tested on: RANKL driven differentiation of osteoclasts from bone marrow macrophages; assay: Osteoclast differentiation assay (TRAP staining); assay type: cell-based, mouse; conditions: FIG. 17
Method: Bone Marrow Derived Macrophages as Osteoclast Progenitors: Long bones from young C57B6 mice were harvested and bone marrow was extruded by gentle lavage of the bone marrow cavities with a 28 gage needle. The cells were screened, and red blood cells were removed using red blood cell lysis buffer (Sigma). Bone marrow cells were differentiated to macrophages using 20 ng/ml mouse MCSF (RnD systems) for 3 days (RPMI and 20% FCS). The cell were washed with PBS, and lifted with Accutase for 10 minutes.
Osteoclast Differentiation Assay: The bone marrow macrophage cells were plated at 150,000 cells per well in a 96 well plate in a MEM 10% FCS. […] Then 25 ng/ml mouse MCSF with or without mouse RANKL (100 ng/ml, RnD systems) was added for 6 days. Media changes (including drugs) were done at day 3 and day 5. The cells were then fixed and stained with the tartrate resistant acid phosphatase (TRAP) assay kit from Sigma according to the manufactures instructions. TRAP positive cells (osteoclasts and cells undergoing an osteoclastic differentiation) in a transect of the triplicate wells (at 20× […]) were manually counted by going through the widest part of each well.

[10] = tested on: differentiation of myeloid cells into M2 TAMs; assay: Murine M2 TAM differentiation (ARG1 levels); assay type: cell-based, mouse; conditions: FIG. 22A/22B
Text: High ARG1 (Arginase-1) levels indicate that myeloid cells are differentiating into M2 macrophages, so lower ARG1 levels relative to a control indicate interference with differentiation into M2 macrophages. Expression of Arginase-1 depletes the tumor microenvironment of arginine, thereby promoting T cell death and NK cell inhibition. Schmid et. al., Proceedings: AACR 103rd Annual Meeting 2012, Cancer Research: Apr. 15, 2012; Volume 72, Issue 8, Supplement 1. […] M2 TAMs promote cancer cell survival (FIG. 23).
M2 macrophages can be produced as follows. Sacrifice mouse and collect femur and tibias Immerse the bones on a petri dish in 70% ethanol for 1-2 min, then remove the bones and let the ethanol dry off for 3-4 min. Cut off a very small portion of the end of the bones to make an easy access for needle insert. Using a 27 g needle filled will media containing DMEM+10% FBS+1% Pen/Strep (complete DMEM), expel the bone marrow from both ends of the bones into a 15 ml petri dish. Pipette the bone marrow to dissociate the bone marrow cells. Centrifuge and add 1× Red Cell lysis buffer to the pellet. Let RBC lyse for 2 min then add equal amount of complete DMEM and centrifuge. The bone marrow from one mouse can be divided into 2 petri dishes containing 7 ml of BMM media (DMEM+20% FBS+1% Pen/Strep+50 ng/ml M-CSF). […] The cells are ready for polarization on day 6. […]

[11] = tested on: M1 macrophage differentiation; assay: M1 macrophage differentiation; assay type: cell-based
Method: A similar experiment was performed on M1 differentiation.

[12] = molecular target: P-GP (P-glycoprotein 1) (Homo sapiens (Human), UniProt P08183); assay: P-glycoprotein inhibition; assay type: in vitro ADME
P-GP (P-glycoprotein 1), sequence (P08183 whole entry, species assumed): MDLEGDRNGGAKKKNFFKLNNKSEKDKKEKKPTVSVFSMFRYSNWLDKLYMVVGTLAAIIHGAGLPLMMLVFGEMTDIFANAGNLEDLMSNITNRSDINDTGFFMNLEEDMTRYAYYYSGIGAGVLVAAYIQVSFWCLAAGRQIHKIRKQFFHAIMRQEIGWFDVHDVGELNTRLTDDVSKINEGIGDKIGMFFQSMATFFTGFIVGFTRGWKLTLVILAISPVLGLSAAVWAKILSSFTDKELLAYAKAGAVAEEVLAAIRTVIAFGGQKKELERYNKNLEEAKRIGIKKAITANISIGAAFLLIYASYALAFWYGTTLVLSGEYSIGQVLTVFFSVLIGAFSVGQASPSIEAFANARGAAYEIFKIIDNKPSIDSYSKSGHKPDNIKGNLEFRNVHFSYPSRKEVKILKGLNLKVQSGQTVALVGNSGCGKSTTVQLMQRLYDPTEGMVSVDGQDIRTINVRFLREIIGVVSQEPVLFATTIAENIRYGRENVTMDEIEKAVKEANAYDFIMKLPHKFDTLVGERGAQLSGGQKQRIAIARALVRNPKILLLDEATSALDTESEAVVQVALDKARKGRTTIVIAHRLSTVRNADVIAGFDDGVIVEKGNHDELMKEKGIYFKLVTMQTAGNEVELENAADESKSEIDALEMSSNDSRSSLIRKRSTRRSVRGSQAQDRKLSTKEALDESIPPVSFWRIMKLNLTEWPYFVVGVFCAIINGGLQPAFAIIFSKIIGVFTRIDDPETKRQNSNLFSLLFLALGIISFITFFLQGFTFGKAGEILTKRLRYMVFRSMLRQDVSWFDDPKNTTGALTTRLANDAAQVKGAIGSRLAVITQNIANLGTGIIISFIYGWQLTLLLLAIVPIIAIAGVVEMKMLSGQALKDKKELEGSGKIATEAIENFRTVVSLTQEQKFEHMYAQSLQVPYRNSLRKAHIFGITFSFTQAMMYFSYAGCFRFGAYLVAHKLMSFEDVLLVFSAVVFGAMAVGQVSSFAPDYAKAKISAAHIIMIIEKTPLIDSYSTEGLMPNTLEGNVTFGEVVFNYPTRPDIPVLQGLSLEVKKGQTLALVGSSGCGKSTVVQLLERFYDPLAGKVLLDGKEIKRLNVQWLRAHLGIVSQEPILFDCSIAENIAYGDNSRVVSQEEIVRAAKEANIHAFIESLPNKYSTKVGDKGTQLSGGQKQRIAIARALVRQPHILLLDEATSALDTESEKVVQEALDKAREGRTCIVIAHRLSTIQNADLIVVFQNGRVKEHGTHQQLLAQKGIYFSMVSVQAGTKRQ
Text: Without being bound by a particular theory, the P-gp inhibitor could help maintin levels of the P-gp substrate in tumors overexpressing the P-gp transporter.

[13] = In vitro toxicology studies
[14] = Target organ toxicity (TOT) study, 10 days oral; assay type: in vivo
Method: A target organ toxicity (TOT) study was performed in rats. […] This study assessed clinical observations/mortality, body weights, clinical pathology, toxicokinetics, and histopathology of select tissues. The tissues studied were: Adrenal gland, Bone marrow (femur), Brain, Small Intestine (including GALT), Heart, Large Intestine, Kidney, Stomach, Liver, Pancreas, Spleen, Testis, and Thymus. Doses were selected based on repeat-dose tolerability study, PK and plasma protein binding, and cellular IC50s for PI3K isoforms.

[15] = tested on: GL261-Luc; assay: GL261-Luc murine glioblastoma subcutaneous model; assay type: in vivo, mouse; conditions: 15 mg/kg QD, PO
[16] = Pharmacokinetics in rodent and non-rodent animal species; assay type: in vivo
Text: These properties indicate the compound's suitability for in vivo administration.

[17] = molecular target: PGP (Homo sapiens (Human), UniProt P08183); assay: PGP efflux; assay type: in vitro ADME
PGP, sequence (P08183 whole entry, species assumed): as above

[18] = GSH Adduct Formation; assay type: in vitro ADME
[19] = Mouse pharmacokinetics, oral single and repeat dose; conditions: in vivo, 10 mg/kg in NMP solution, read-out: Mouse PK AUClast @ 10 mg/kg in NMP solution
[20] = tested on: IL-8 induced neutrophil migration; assay: IL-8 driven murine air pouch model; conditions: mouse air pouch; BB 0.1-3 mg/kg, AA 10-50 mg/kg

SMILES: C[C@H](NC(=O)c1c(N)nn2cccnc12)c1cc2cccc(C#Cc3cnn(C)c3)c2c(=O)n1-c1ccccc1 [Compound BB]
- RANKL driven differentiation of osteoclasts [1]: prevents
- effect on IFN-γ [2]: little to no effect
- ARG1 [3]: suppresses
- VEGF [3]: suppresses
- single agent activity [4]: demonstrates single agent activity
- tumor growth ([5]; Compound BB alone): achieves a reduction in tumor growth
- tumor growth ([5]; co-administration of Compound BB and 5-FU): achieves a further reduction
- CD206+M2 polarized suppressive macrophages [6]: reduces
- TAMs [6]: decreased
- oral exposure [7]: high
- inhibition of CXCL12-induced pAKT in T-cells [8]: inhibited CXCL12-induced pAKT in T-cells more strongly
- RANKL driven differentiation of osteoclasts (TRAP positive cells) [9]: prevents RANKL driven differentiation of osteoclasts
- M2 TAM differentiation (ARG1 levels) [10]: inhibited M2 TAM differentiation much more effectively than PI3K-δ inhibitor
- M1 macrophage differentiation [11]: did not have an observable effect
- P-GP inhibition [12]: appears to be an inhibitor of P-GP
- inhibition at 10 µM ([12]; 10 uM, read-out: PGP Inhibition @ 10 uM): 98%
- IC50 ([12]; read-out: PGP Inhibition IC50): < 1000 nM
- toxicity expected from in vitro toxicology studies [13]: very low toxicity
- decrease in body weights compared to vehicle ([14]; high dose animals (50 mg/kg/day)): 5-8%
- histopathology, thymus ([14]; males at ≧7.5 mg/kg/day, females at 50 mg/kg/day): minimal/mild lymphoid depletion
- histopathology, spleen (marginal zone and PALS) ([14]; primarily at doses ≧20 mg/kg/day): minimal/mild lymphoid depletion
- clinical pathology ([14]; primarily in 20 and 50 mg/kg/day groups): minimal changes in neutrophils, lymphocytes, and fibrinogen
- histopathology, gross changes ([14]; rats, oral, 10 days): no significant gross changes
- tolerability ([14]; rats, oral, 10 days, 1 to 50 mg/kg/day): well-tolerated
- mortality and clinical signs ([14]; rats, oral, 10 days, any dose level): No mortality or clinical signs
- total flux, GL-261 syngeneic glioma model [15]: reduced the total flux
- tumor volume, GL-261 syngeneic glioma model [15]: reduced tumor volume
- clearance ([16]; in vivo): low clearance
- half-life in vivo ([16]; in vivo): long half-life
- volume of distribution ([16]; in vivo): high volume of distribution
- oral bioavailability ([16]; rodent and non-rodent animal species): high oral bioavailability
- PGP efflux@ 10 uM [17]: No
- GSH Adduct Formation [18]: Neg
- AUC(0-t) [19]: 83700 ng·h/mL
- IL-8 induced neutrophil migration [20]: blocks IL-8 induced neutrophil migration

Reference: patent US9775844B2, “Heterocyclic compounds and uses thereof” (Infinity Pharmaceuticals, Inc., priority 2014, dated 2017)
